EP1952812A1, “Drug for treating thalessemia, falciform anemia and all other forms of anemia treatable therewith” (Universita' Degli Studi di Ferrara, priority 2007, dated 2008)

Experiments:
[1] = test system: K562 human cell line; assay: Erythroid differentiation of K562 cells (benzidine positivity), with or without UVA photoactivation; assay type: cell-based; conditions: percentage of K562 cells positive to benzidine
Experimental: The evaluation of the biological activity of the treatment with psoralens photoactivated with UVA light was conducted by examining the capacity of these molecules to modulate the gamma-globin gene expression in the K562 human cell line, which is able to differentiate in the erythroid sense by expressing the gamma-globin genes if subjected to treatment with biological response modifiers suitable for the purpose (Lampronti I., Bianchi N Borgatti M., Fibach E.,Prus E.,Gambari R. Eur J Haematology 71 189-195 2003, Bianchi N, Ongaro F, Chiarabelli C, Gualandi L, Mischiati C, Bergamini P, Gambari R. Biochem Pharmacol, 60:31-40, 2000;Bianchi N, Osti F, Rutigliano C, Ginanni Corradini F, Borsetti E, Tomassetti M, Mischiati C, Feriotto G and Gambari R, British Journal of Haematology, 104:258-263, 1999).
The differentiation level was evaluated by analyzing the cell positivity to benzidine (Lampronti I., Bianchi N., Borgatti M., Fibach E., Prus E., Gambari R. Eur J Haematology 71 189-195 2003,).
The gamma-globin coding gene expression was evaluated by quantitative RT-PCR (reverse transcriptase PCR) (Lampronti I., Bianchi N Borgatti M., Fibach E.,Prus E.,Gambari R. Eur J Haematology. 71 189-195 2003) Some of the data obtained are reported in Table 1. As can be easily noted, treatment with different furocoumarin derivatives photoactivated with UVA light are able to induce an increase in the percentage of cells positive to benzidine (60-85% of the treated cells, compared with 5-17% of the K562 control cells treated with furocoumarin derivatives in the absence of UVA light). […] In the control not treated with furocoumarin derivatives, erythrolid differentiation is low (4-6%) both in the absence and in the presence of UVA light.

[2] = test system: gamma-globin mRNA; assay: gamma-globin mRNA production by quantitative RT-PCR in human erythroid precursors isolated from peripheral blood (two-step Fibach culture); assay type: cell-based; conditions: for gamma-globulin mRNA: ratio of mRNA content in UVA-treated cells to that of UVA-untreated cells, cells treated for 6 days
Source text: To verify if treatment with 8-meethoxypsoralen and trimethylangelicin photoactivated with UVA light was able to stimulate mRNA production for gamma-globin in human erythroid precursors isolated from peripheral blood, the method used was that described by Fibach et al. (Fibach E. Hemoglobin, 22: 445-458, 1998; Fibach E, Burke KP, Schechter AN, Noguchi CT & Rodgers GP. Blood, 81: 1630-1635, 1993). This method comprises two steps: the cells isolated from peripheral blood of a healthy subject or affected with a hemopoietic pathology, such as falciform anemia or beta-thalessemia, are seeded in culture medium to which 10% of conditioned medium deriving from the bladder carcinoma cell line 5637 is added. The second step consists of cultivating the isolated cells in a suitable culture medium to which erythropoietin hormone, 30% of bovine fetal serum, 2-mercapto-ethanol, albumin, glutamine and desametasone are added to enable proliferation and maturing of erythroid stem cells. In this step the cells can be treated with potential HbF inducers.
The gamma-globin mRNA production level is much higher than that encountered using hydroxyurea as inducer (Fibach E. Hemoglobin, 22: 445-458, 1998; Fibach E, Burke KP, Schechter AN, Noguchi CT & Rodgers GP. Blood, 81: 1630-1635, 1993).

[3] = Homo sapiens, light or radiation study, 144 h, read-out: gamma-globin mRNA

Structure (SMILES) | Erythroid differentiation with UVA (%) ([1]; concentration 0.50 µM) | Erythroid differentiation without UVA (%) ([1]; concentration 0.50 µM) | gamma-globulin mRNA ([2]; concentration 0.10 µM) | gamma-globulin mRNA ([2]; concentration 0.50 µM) | Erythroid differentiation with UVA (%) ([1]; concentration 0.25 µM) | Erythroid differentiation without UVA (%) ([1]; concentration 0.25 µM) | fold induction at 0.25 µM [2, 3] | fold induction at 1 µM [2, 3]
Cc1cc(=O)oc2c1cc(C)c1occ(C)c12 [trimethylangelicin] | 85 | 5 | 9.56 | 12.86 |  |  |  | 
O=c1ccc2ccc3occc3c2o1 [angelicin] | 60 | 6 |  |  |  |  |  | 
COc1c2occc2cc2ccc(=O)oc12 [Compound 8-MOP, 8-methoxypsoralen, reference compound] |  |  |  |  | 65 | 17 | 2.76 | 18.5
